EC50 and Emax data for five compounds are collected here from patent publication US6936585B2, “Corticotropin releasing factor 2 receptor agonists” (priority 2002, dated 2005).

Peptide text beside a SMILES is read from it.

For one test, the target named is T1, CRF1R (Homo sapiens, UniProt P34998).
T1 sequence (P34998 24-415): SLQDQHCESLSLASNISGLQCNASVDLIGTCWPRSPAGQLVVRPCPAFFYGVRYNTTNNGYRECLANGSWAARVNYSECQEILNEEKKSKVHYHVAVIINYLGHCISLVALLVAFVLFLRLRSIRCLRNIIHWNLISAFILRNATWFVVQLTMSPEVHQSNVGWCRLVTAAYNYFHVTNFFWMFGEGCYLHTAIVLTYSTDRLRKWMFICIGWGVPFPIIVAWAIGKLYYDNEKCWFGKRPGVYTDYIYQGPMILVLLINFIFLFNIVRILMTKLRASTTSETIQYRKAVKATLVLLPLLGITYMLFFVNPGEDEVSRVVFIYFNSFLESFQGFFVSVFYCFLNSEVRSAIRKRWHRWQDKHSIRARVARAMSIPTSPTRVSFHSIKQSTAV
Briefly: CRF1R agonist activation (EC50 / Emax), called comparative CRF binding. The note with it: for EC50: read-out: CRF1R EC50; for Emax: read-out: CRF1R Emax. In kind it is cell-based. The text has this: (§1) The pharmacological activity and selectivity of the peptides of present invention can be determined using published test procedures. See, e.g, U.S. patent application Ser. No. 09/799,978 (now issued U.S. Pat. No. 6,670,140). Because CRF2R and CRF1R are homologous proteins, it is expected that a certain proportion of agonists for CRF2R will also function as agonists of CRF1R. As discussed above, activation of CRF1R induces activation of the HPA axis since increased corticosteroid production leads to skeletal muscle atrophy. In most cases in which an increase in muscle mass or function is desired, it is not desirable to activate the HPA axis.
(§2) Cell-based assays include the steps of contacting cells which express CRF1R or CRF2R with a peptide of the present invention or control and measuring activation of the CRFR by measuring the expression or activity of components of the CRFR signal transduction pathways.
(§3) For example, after contact with a peptide of the present invention, lysates of the cells can be prepared and assayed for induction of cAMP. cAMP is induced in response to Gαs activation. Because Gαs is activated by receptors other than CRFR and because a test peptide may be exerting its effect through CRFRs or by another mechanism, two control comparisons are relevant for determining whether the peptide increases levels of cAMP via activation of a CRFR. One control compares the cAMP level of cells contacted with the peptide and the cAMP level of cells contacted with a control compound (i.e., the vehicle in which the peptide is dissolved).
(§4) In one example, cAMP induction is measured with the use of DNA constructs containing the cAMP responsive element linked to any of a variety of reporter genes can be introduced into cells expressing CRFRs. Such reporter genes include, but are not limited to, chloramphenicol acetyltransferase (CAT), luciferase, glucuronide synthetase, growth hormone, fluorescent proteins (e.g., Green Fluorescent Protein), or alkaline phosphatase. Following exposure of the cells to the peptide, the level of reporter gene expression can be quantitated to determine the peptide's ability to increase cAMP levels and thus determine the peptide's ability to activate the CRFR.
(§5) In addition to using cells expressing full length CRFRs, cells can be engineered which express CRFRs containing the ligand binding domain of the receptor coupled to, or physically modified to contain, reporter elements or to interact with signaling proteins. For example, a wild type CRFR or CRFR fragment can be fused to a G-protein resulting in activation of the fused G-protein upon agonist binding to the CRFR portion of the fusion protein. […] In addition, alternative pathways for induction of the CRE reporter could be eliminated to reduce basal levels.

Another test concerns the target T2, CRF2R (Homo sapiens, UniProt Q13324).
T2 sequence (Q13324 1-411): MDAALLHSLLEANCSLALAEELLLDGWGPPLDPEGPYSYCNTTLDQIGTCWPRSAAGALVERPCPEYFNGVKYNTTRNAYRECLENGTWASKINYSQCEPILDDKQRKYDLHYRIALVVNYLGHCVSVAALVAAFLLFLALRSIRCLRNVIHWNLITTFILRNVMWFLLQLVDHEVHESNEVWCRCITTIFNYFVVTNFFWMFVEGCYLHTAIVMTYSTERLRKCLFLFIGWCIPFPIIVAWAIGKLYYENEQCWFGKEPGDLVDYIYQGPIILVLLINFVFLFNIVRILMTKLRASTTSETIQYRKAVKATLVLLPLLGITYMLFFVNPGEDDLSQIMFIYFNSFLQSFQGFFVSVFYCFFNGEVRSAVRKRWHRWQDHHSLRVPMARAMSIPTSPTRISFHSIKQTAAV
Briefly: CRF2R agonist activation (EC50 / Emax), called comparative CRF binding. The format is cell-based. The note with it: for EC50: read-out: CRF2R EC50; for Emax: read-out: CRF2R Emax.
From the text: as §1, §2, §3, §4, §5

One may read the EC50 as the concentration at which the effect is half-maximal. By Emax is commonly meant the maximal effect, on the per cent scale that the assay sets. For the compound `CC[C@H](C)[C@H](N)C(=O)N[C@H](C(=O)N[C@@H](CC(C)C)C(=O)N[C@@H](CO)C(=O)N[C@@H](CC(C)C)C(=O)N[C@@H](CC(=O)O)C(=O)N[C@H](C(=O)N1CCC[C@H]1C(=O)N[C@H](C(=O)NCC(=O)N[C@@H](CC(C)C)C(=O)N[C@@H](CC(C)C)C(=O)N[C@@H](CCC(N)=O)C(=O)N[C@H](C(=O)N[C@@H](CC(C)C)C(=O)N[C@@H](CC(C)C)C(=O)N[C@@H](CCC(=O)O)C(=O)N[C@@H](CCC(N)=O)C(=O)N[C@@H](C)C(=O)N[C@@H](CCCCN)C(=O)N[C@@H](CCC(N)=O)C(=O)N[C@@H](CCCNC(=N)N)C(=O)N[C@@H](C)C(=O)N[C@@H](C)C(=O)N[C@@H](CCCNC(=N)N)C(=O)N[C@@H](CCC(=O)O)C(=O)N[C@@H](CCC(N)=O)C(=O)N[C@@H](C)C(=O)N[C@H](C(=O)N[C@H](C(=O)N[C@@H](CC(N)=O)C(=O)N[C@@H](C)C(=O)N[C@@H](CCCNC(=N)N)C(=O)N[C@H](C(=O)N[C@@H](CC(C)C)C(=O)N[C@@H](C)C(=O)N[C@@H](CCCNC(=N)N)C(=O)N[C@H](C(N)=O)C(C)C)[C@@H](C)CC)[C@@H](C)O)[C@@H](C)O)[C@@H](C)CC)[C@@H](C)CC)C(C)C)C(C)C` [compound 110] (H-IVLSLDVPIGLLQILLEQAKQRAAREQATTNARILARV-NH2; N-terminus assumed), at CRF1R, the concentration giving a half-maximal response (EC50) is above 100 nM and the Emax stood at 9%. Further, on CRF2R, the half-maximal effective concentration (EC50) was found to be 11 nM and the Emax is 100%.
Turning to `CC[C@H](C)[C@H](N)C(=O)N[C@H](C(=O)N[C@@H](CC(C)C)C(=O)N[C@@H](CO)C(=O)N[C@@H](CC(C)C)C(=O)N[C@@H](CC(=O)O)C(=O)N[C@H](C(=O)N1CCC[C@H]1C(=O)N[C@H](C(=O)NCC(=O)N[C@@H](CC(C)C)C(=O)N[C@@H](CC(C)C)C(=O)N[C@@H](CCC(N)=O)C(=O)N[C@H](C(=O)N[C@@H](CC(C)C)C(=O)N[C@@H](CC(C)C)C(=O)N[C@@H](CCC(=O)O)C(=O)N[C@@H](CCC(N)=O)C(=O)N[C@@H](CCC(=O)O)C(=O)N[C@@H](CCCNC(=N)N)C(=O)N[C@@H](CCC(N)=O)C(=O)N[C@@H](CCCNC(=N)N)C(=O)N[C@@H](C)C(=O)N[C@@H](C)C(=O)N[C@@H](CCCNC(=N)N)C(=O)N[C@@H](CCC(=O)O)C(=O)N[C@@H](CCC(N)=O)C(=O)N[C@@H](C)C(=O)N[C@H](C(=O)N[C@H](C(=O)N[C@@H](CC(N)=O)C(=O)N[C@@H](C)C(=O)N[C@@H](CCCNC(=N)N)C(=O)N[C@H](C(=O)N[C@@H](CC(C)C)C(=O)N[C@@H](C)C(=O)N[C@@H](CCCNC(=N)N)C(=O)N[C@H](C(N)=O)C(C)C)[C@@H](C)CC)[C@@H](C)O)[C@@H](C)O)[C@@H](C)CC)[C@@H](C)CC)C(C)C)C(C)C` [compound 111] (H-IVLSLDVPIGLLQILLEQERQRAAREQATTNARILARV-NH2; N-terminus assumed), the maximum response (Emax) stood at 9% at CRF1R and 99% on CRF2R.
Consider `CC[C@H](C)[C@H](N)C(=O)N[C@H](C(=O)N[C@@H](CC(C)C)C(=O)N[C@@H](CO)C(=O)N[C@@H](CC(C)C)C(=O)N[C@@H](CC(=O)O)C(=O)N[C@H](C(=O)N1CCC[C@H]1C(=O)N[C@H](C(=O)NCC(=O)N[C@@H](CC(C)C)C(=O)N[C@@H](CC(C)C)C(=O)N[C@@H](CCC(N)=O)C(=O)N[C@H](C(=O)N[C@@H](CC(C)C)C(=O)N[C@@H](CC(C)C)C(=O)N[C@@H](CCC(=O)O)C(=O)N[C@@H](CCC(N)=O)C(=O)N[C@@H](C)C(=O)N[C@@H](CCCCN)C(=O)N[C@@H](C)C(=O)N[C@@H](CCC(=O)O)C(=O)N[C@@H](C)C(=O)N[C@@H](C)C(=O)N[C@@H](CCCNC(=N)N)C(=O)N[C@@H](CCC(=O)O)C(=O)N[C@@H](CCC(N)=O)C(=O)N[C@@H](C)C(=O)N[C@H](C(=O)N[C@H](C(=O)N[C@@H](CC(N)=O)C(=O)N[C@@H](C)C(=O)N[C@@H](CCCNC(=N)N)C(=O)N[C@H](C(=O)N[C@@H](CC(C)C)C(=O)N[C@@H](C)C(=O)N[C@@H](CCCNC(=N)N)C(=O)N[C@H](C(N)=O)C(C)C)[C@@H](C)CC)[C@@H](C)O)[C@@H](C)O)[C@@H](C)CC)[C@@H](C)CC)C(C)C)C(C)C` [compound 112] (H-IVLSLDVPIGLLQILLEQAKAEAAREQATTNARILARV-NH2; N-terminus assumed), for which the EC50 was above 100 nM on CRF1R and 12.3 nM on CRF2R. For the same compound, the maximum response (Emax) on CRF1R amounted to 10%; at CRF2R it was 100%.
As for `CC[C@H](C)[C@H](N)C(=O)N[C@H](C(=O)N[C@@H](CC(C)C)C(=O)N[C@@H](CO)C(=O)N[C@@H](CC(C)C)C(=O)N[C@@H](CC(=O)O)C(=O)N[C@H](C(=O)N1CCC[C@H]1C(=O)N[C@H](C(=O)NCC(=O)N[C@@H](CC(C)C)C(=O)N[C@@H](CC(C)C)C(=O)N[C@@H](CCC(N)=O)C(=O)N[C@H](C(=O)N[C@@H](CC(C)C)C(=O)N[C@@H](CC(C)C)C(=O)N[C@@H](CCC(=O)O)C(=O)N[C@@H](CCC(N)=O)C(=O)N[C@@H](CCC(=O)O)C(=O)N[C@@H](CCCNC(=N)N)C(=O)N[C@@H](C)C(=O)N[C@@H](CCC(=O)O)C(=O)N[C@@H](C)C(=O)N[C@@H](C)C(=O)N[C@@H](CCCNC(=N)N)C(=O)N[C@@H](CCC(=O)O)C(=O)N[C@@H](CCC(N)=O)C(=O)N[C@@H](C)C(=O)N[C@H](C(=O)N[C@H](C(=O)N[C@@H](CC(N)=O)C(=O)N[C@@H](C)C(=O)N[C@@H](CCCNC(=N)N)C(=O)N[C@H](C(=O)N[C@@H](CC(C)C)C(=O)N[C@@H](C)C(=O)N[C@@H](CCCNC(=N)N)C(=O)N[C@H](C(N)=O)C(C)C)[C@@H](C)CC)[C@@H](C)O)[C@@H](C)O)[C@@H](C)CC)[C@@H](C)CC)C(C)C)C(C)C` [compound 113] (H-IVLSLDVPIGLLQILLEQERAEAAREQATTNARILARV-NH2; N-terminus assumed), on CRF1R, the EC50 was above 100 nM and the maximal effect (Emax) worked out at 4%. Further, on CRF2R, the concentration for a half-maximal effect (EC50) worked out at 11.3 nM and the Emax amounted to 98%.
Take `CC[C@H](C)[C@H](N)C(=O)N[C@H](C(=O)N[C@@H](CC(C)C)C(=O)N[C@@H](CO)C(=O)N[C@@H](CC(C)C)C(=O)N[C@@H](CC(=O)O)C(=O)N[C@H](C(=O)N1CCC[C@H]1C(=O)N[C@H](C(=O)NCC(=O)N[C@@H](CC(C)C)C(=O)N[C@@H](CC(C)C)C(=O)N[C@@H](CCC(N)=O)C(=O)N[C@H](C(=O)N[C@@H](CC(C)C)C(=O)N[C@@H](CC(C)C)C(=O)N[C@@H](CCC(=O)O)C(=O)N[C@@H](CCC(N)=O)C(=O)N[C@@H](C)C(=O)N[C@@H](CCCNC(=N)N)C(=O)N[C@@H](CCC(N)=O)C(=O)N[C@@H](CCCNC(=N)N)C(=O)N[C@@H](C)C(=O)N[C@@H](C)C(=O)N[C@@H](CCCNC(=N)N)C(=O)N[C@@H](CCC(=O)O)C(=O)N[C@@H](CCC(N)=O)C(=O)N[C@@H](C)C(=O)N[C@H](C(=O)N[C@H](C(=O)N[C@@H](CC(N)=O)C(=O)N[C@@H](C)C(=O)N[C@@H](CCCNC(=N)N)C(=O)N[C@H](C(=O)N[C@@H](CC(C)C)C(=O)N[C@@H](C)C(=O)N[C@@H](CCCNC(=N)N)C(=O)N[C@H](C(N)=O)C(C)C)[C@@H](C)CC)[C@@H](C)O)[C@@H](C)O)[C@@H](C)CC)[C@@H](C)CC)C(C)C)C(C)C` [compound 114] (H-IVLSLDVPIGLLQILLEQARQRAAREQATTNARILARV-NH2; N-terminus assumed): the Emax on CRF1R came out at 6%; on CRF2R it was 100%.
